Several values for one entry are separate records, joined by “and”; a condition that tells them apart may be missing. Equal entries are not always repeated.
Tests used:
Test in all cases: PDSP GPCR panel primary binding assays at 10 μM
[1] = molecular target: T1, cloned human or rodent CNS receptors, channels, and transporters (PDSP panel) (Homo sapiens, UniProt P28221); conditions: primary assay
T1 construct: expressed in transfected cells
Procedure, shortened: (§1)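 Secondary binding curves (11 points, triplicate) were run at targets where the 10 μM primary screen, done in quadruplicate, displaced over 50% of radio-labelled standard ligand on average. Primary screening covered 46–47 cloned human or rodent CNS targets; H3, PBR and GABAA were not followed up.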

[2] = molecular target: T2, cloned human or rodent CNS receptors, channels, and transporters (PDSP panel) (Homo sapiens, UniProt P21918); conditions: primary assay
T2 construct: expressed in transfected cells
T2 sequence (P21918 whole entry): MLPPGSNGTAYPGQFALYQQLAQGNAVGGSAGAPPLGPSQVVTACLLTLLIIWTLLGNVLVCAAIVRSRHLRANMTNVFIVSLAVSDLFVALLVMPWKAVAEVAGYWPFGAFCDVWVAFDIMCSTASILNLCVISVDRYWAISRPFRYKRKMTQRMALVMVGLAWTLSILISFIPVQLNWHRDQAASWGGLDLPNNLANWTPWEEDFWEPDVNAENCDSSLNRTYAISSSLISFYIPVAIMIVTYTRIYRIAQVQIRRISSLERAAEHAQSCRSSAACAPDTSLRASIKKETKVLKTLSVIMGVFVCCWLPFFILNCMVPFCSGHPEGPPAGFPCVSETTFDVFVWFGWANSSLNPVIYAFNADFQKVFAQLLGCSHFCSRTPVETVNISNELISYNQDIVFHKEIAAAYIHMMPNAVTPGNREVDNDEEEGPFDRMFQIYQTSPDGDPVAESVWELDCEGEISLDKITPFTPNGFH
Procedure, shortened: as §1

[3] = molecular target: T3, cloned human or rodent CNS receptors, channels, and transporters (PDSP panel) (Homo sapiens, UniProt P35368); conditions: primary assay
T3 construct: expressed in transfected cells
T3 sequence (P35368 1-520): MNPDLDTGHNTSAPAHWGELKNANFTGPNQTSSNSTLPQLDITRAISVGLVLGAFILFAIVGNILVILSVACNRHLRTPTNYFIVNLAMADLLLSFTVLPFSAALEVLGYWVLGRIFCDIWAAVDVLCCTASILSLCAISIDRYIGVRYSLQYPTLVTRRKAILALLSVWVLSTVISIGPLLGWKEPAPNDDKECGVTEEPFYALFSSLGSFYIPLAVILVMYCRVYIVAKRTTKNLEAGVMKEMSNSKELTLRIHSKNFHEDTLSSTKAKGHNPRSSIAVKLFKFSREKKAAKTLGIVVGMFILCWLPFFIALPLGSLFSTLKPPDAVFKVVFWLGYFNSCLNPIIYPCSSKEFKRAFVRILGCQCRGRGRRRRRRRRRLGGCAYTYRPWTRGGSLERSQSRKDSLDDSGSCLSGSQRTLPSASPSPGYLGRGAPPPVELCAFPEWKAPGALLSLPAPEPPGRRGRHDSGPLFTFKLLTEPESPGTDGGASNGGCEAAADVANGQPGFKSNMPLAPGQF
Procedure, shortened: as §1

[4] = tested on: cloned human or rodent CNS receptors, channels, and transporters (PDSP panel); conditions: for Inhibition 1 / Inhibition 2 / Inhibition 3 / Inhibition 4 / Mean %: primary assay
Procedure, shortened: as §1

[5] = molecular target: T4, cloned human or rodent CNS receptors, channels, and transporters (PDSP panel) (Homo sapiens, UniProt P08172); conditions: primary assay
T4 construct: expressed in transfected cells
T4 sequence (P08172 1-466): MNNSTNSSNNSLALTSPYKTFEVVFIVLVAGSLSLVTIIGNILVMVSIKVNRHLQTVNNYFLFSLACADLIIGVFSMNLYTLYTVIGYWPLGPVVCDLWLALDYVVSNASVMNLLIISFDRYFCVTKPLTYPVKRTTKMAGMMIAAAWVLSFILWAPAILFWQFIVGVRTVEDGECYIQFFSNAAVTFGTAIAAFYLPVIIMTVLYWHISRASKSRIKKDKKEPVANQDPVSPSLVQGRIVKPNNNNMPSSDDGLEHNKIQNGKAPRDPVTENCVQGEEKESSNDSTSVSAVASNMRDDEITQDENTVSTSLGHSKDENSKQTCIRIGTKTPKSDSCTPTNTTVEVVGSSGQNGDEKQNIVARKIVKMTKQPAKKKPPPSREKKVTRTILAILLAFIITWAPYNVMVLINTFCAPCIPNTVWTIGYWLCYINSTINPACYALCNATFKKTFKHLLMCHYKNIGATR
Procedure, shortened: as §1

[6] = Receptor BZP Rat Brain Site, 10 μM

T1 sequence (P28221 whole entry): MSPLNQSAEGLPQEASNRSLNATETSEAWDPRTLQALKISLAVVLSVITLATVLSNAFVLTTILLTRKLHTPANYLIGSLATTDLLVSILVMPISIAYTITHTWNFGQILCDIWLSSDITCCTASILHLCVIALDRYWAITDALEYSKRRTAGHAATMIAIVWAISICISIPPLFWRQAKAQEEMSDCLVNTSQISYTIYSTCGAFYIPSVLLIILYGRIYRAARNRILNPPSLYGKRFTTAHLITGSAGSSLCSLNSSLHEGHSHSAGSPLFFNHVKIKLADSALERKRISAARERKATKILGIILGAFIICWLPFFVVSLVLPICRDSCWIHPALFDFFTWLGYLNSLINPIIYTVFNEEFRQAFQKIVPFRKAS

## CCCCNc1ncc2c(-c3ccc(CN4CCN(C)CC4)cc3)cn([C@H]3CC[C@H](O)CC3)c2n1 [UNC2025C, UNC2025]
[1]; Receptor 5-HT1D, 10 μM
  Inhibition 1: 51.95%
  Inhibition 2: 44.87%
  Inhibition 3: 26.55%
  Inhibition 4: 48.2%
[1]; Receptor 5-HT1D, 10 μM, mean of Inhibition 1-4
  Mean %: 42.89%
[2]; Receptor D5, 10 μM
  Inhibition 1: 6.22%
  Inhibition 2: 2.13%
  Inhibition 3: 5.78%
  Inhibition 4: 14.39%
[2]; Receptor D5, 10 μM, mean of Inhibition 1-4
  Mean %: 7.13%
[3]; Receptor Alpha1B, 10 μM
  Inhibition 1: 15.21%
  Inhibition 2: -0.72%
  Inhibition 3: -5.53%
  Inhibition 4: -1.63%
[3]; Receptor Alpha1B, 10 μM, mean of Inhibition 1-4
  Mean %: 1.83%
[4]; 10 μM, 46-47 primary binding assays
  Affinity for receptors in primary assays: possessed affinity for the most receptors in primary assays
[4]; Receptor Alpha1A, 10 μM
  Inhibition 1: 55.27%
  Inhibition 2: 34.14%
  Inhibition 3: 47.98%
  Inhibition 4: 43.68%
[4]; Receptor Alpha1A, 10 μM, mean of Inhibition 1-4
  Mean %: 45.27%
[4]; Receptor Alpha2A, 10 μM
  Inhibition 1: 41.44%
  Inhibition 2: 35.02%
  Inhibition 3: 40.8%
  Inhibition 4: 38.73%
[4]; Receptor Alpha2A, 10 μM, mean of Inhibition 1-4
  Mean %: 39%
[4]; Receptor Alpha2C, 10 μM
  Inhibition 1: 51.96%
  Inhibition 2: 38.52%
  Inhibition 3: 26.65%
  Inhibition 4: 27.54%
[4]; Receptor Alpha2C, 10 μM, mean of Inhibition 1-4
  Mean %: 36.17%
[4]; [6]
  Inhibition 1: -0.21%
  Inhibition 2: 6.71%
  Inhibition 3: 5.47%
  Inhibition 4: 13.44%
[4]; Receptor BZP Rat Brain Site, 10 μM, mean of Inhibition 1-4
  Mean %: 6.35%
[4]; Receptor DOR, 10 μM
  Inhibition 1: -5.58%
  Inhibition 2: -6.66%
  Inhibition 3: -9.56%
  Inhibition 4: 1.65%
[4]; Receptor DOR, 10 μM, mean of Inhibition 1-4
  Mean %: -5.04%
[4]; Receptor H3, 10 μM
  Inhibition 1: 93.48%
  Inhibition 2: 95.52%
  Inhibition 3: 93.48%
  Inhibition 4: 100.47%
[4]; Receptor H3, 10 μM, mean of Inhibition 1-4
  Mean %: 95.74%
[4]; Receptor H4, 10 μM
  Inhibition 1: 42.06%
  Inhibition 2: 42.3%
  Inhibition 3: 60.79%
  Inhibition 4: 92.47%
[4]; Receptor H4, 10 μM, mean of Inhibition 1-4
  Mean %: 59.41%
[4]; Receptor Sigma 1, 10 μM
  Inhibition 1: 4.46%
  Inhibition 2: 61.96%
  Inhibition 3: 35.63%
  Inhibition 4: 46.38%
[4]; Receptor Sigma 1, 10 μM, mean of Inhibition 1-4
  Mean %: 37.11%
[4]; Receptor Sigma 2, 10 μM
  Inhibition 1: 97.53%
  Inhibition 2: 96.04%
  Inhibition 3: 97.25%
  Inhibition 4: 98.03%
[4]; Receptor Sigma 2, 10 μM, mean of Inhibition 1-4
  Mean %: 97.21%
[5]; Receptor M2, 10 μM
  Inhibition 1: 32.43%
  Inhibition 2: 20.76%
  Inhibition 3: 14.93%
  Inhibition 4: 24.5%
[5]; Receptor M2, 10 μM, mean of Inhibition 1-4
  Mean %: 23.16%

## O=C(NC1CC1)C(=O)C(Cc1ccccc1)NC(=O)[C@H]1CCC(=O)N1Cc1ccccc1 (stereo partly shown) [UNC10302676A, ABT-957 (Alicapistat)]
[1]; 5-HT1D, mean inhibition
  Mean %: 14.89%
[1]; 5-HT1D, replicate 1
  Inhibition 1: 25.3%
[1]; 5-HT1D, replicate 2
  Inhibition 2: 16.14%
[1]; 5-HT1D, replicate 3
  Inhibition 3: 8.22%
[1]; 5-HT1D, replicate 4
  Inhibition 4: 9.89%
[2]; D5, mean inhibition
  Mean %: -6.38%
[2]; D5, replicate 1
  Inhibition 1: 0%
[2]; D5, replicate 2
  Inhibition 2: 3.82%
[2]; D5, replicate 3
  Inhibition 3: -18.95%
[2]; D5, replicate 4
  Inhibition 4: -10.39%
[3]; Alpha1B, mean inhibition
  Mean %: -8.47%
[3]; Alpha1B, replicate 1
  Inhibition 1: -8.91%
[3]; Alpha1B, replicate 2
  Inhibition 2: -13.01%
[3]; Alpha1B, replicate 3
  Inhibition 3: -14.75%
[3]; Alpha1B, replicate 4
  Inhibition 4: 2.78%
[4]; Alpha1A, mean inhibition
  Mean %: -18.33%
[4]; Alpha1A, replicate 1
  Inhibition 1: -14.03%
[4]; Alpha1A, replicate 2
  Inhibition 2: -31.43%
[4]; Alpha1A, replicate 3
  Inhibition 3: -21.43%
[4]; Alpha1A, replicate 4
  Inhibition 4: -6.43%
[4]; Alpha2A, mean inhibition
  Mean %: 5.04%
[4]; Alpha2A, replicate 1
  Inhibition 1: 2.51%
[4]; Alpha2A, replicate 2
  Inhibition 2: 2.44%
[4]; Alpha2A, replicate 3
  Inhibition 3: -2.65%
[4]; Alpha2A, replicate 4
  Inhibition 4: 17.86%
[4]; Alpha2C, mean inhibition
  Mean %: -12.84%
[4]; Alpha2C, replicate 1
  Inhibition 1: -8.12%
[4]; Alpha2C, replicate 2
  Inhibition 2: -10.33%
[4]; Alpha2C, replicate 3
  Inhibition 3: -21.43%
[4]; Alpha2C, replicate 4
  Inhibition 4: -11.46%
[4]; BZP Rat Brain Site, mean inhibition
  Mean %: 3.75%
[4]; BZP Rat Brain Site, replicate 1
  Inhibition 1: 19.6%
[4]; BZP Rat Brain Site, replicate 2
  Inhibition 2: -1.35%
[4]; BZP Rat Brain Site, replicate 3
  Inhibition 3: -4.1%
[4]; BZP Rat Brain Site, replicate 4
  Inhibition 4: 0.83%
[4]; DOR, mean inhibition
  Mean %: -6.76%
[4]; DOR, replicate 1
  Inhibition 1: 2.73%
[4]; DOR, replicate 2
  Inhibition 2: -0.34%
[4]; DOR, replicate 3
  Inhibition 3: -9.56%
[4]; DOR, replicate 4
  Inhibition 4: -19.86%
[4]; GABAA, replicate 1
  Inhibition 1: 23.2% and -15.74%
[4]; GABAA, replicate 2
  Inhibition 2: 18.02% and -7.64%
[4]; GABAA, replicate 3
  Inhibition 3: -2.68% and 0%
[4]; GABAA, replicate 4
  Inhibition 4: 4.71% and -21.69%
[4]; H3, mean inhibition
  Mean %: -14.21%
[4]; H3, replicate 1
  Inhibition 1: -25.14%
[4]; H3, replicate 2
  Inhibition 2: -2.99%
[4]; H3, replicate 3
  Inhibition 3: -42.04%
[4]; H3, replicate 4
  Inhibition 4: 13.33%
[4]; H4, mean inhibition
  Mean %: -11.52%
[4]; H4, replicate 1
  Inhibition 1: -3.78%
[4]; H4, replicate 2
  Inhibition 2: -13.62%
[4]; H4, replicate 3
  Inhibition 3: -23.94%
[4]; H4, replicate 4
  Inhibition 4: -4.74%
[4]; Sigma 1, mean inhibition
  Mean %: -2.52%
[4]; Sigma 2, mean inhibition
  Mean %: 7.31%
[5]; M2, mean inhibition
  Mean %: 2.92%
[5]; M2, replicate 1
  Inhibition 1: 7.16%
[5]; M2, replicate 2
  Inhibition 2: -5.38%
[5]; M2, replicate 3
  Inhibition 3: 7.65%
[5]; M2, replicate 4
  Inhibition 4: 2.24%
